Measurements published in patent US20240190889A1, “NEW CYCLOPENTA-THIENO-DIAZEPINE DERIVATIVES AS GABA A GAMMA1 POSITIVE ALLOSTERIC MODULATORS” (Hoffmann-La Roche Inc., priority 2021, published 2024).

Legend:
[1] = molecular target: h-GABA-A α2β2γ1 receptor expressed in Xenopus laevis oocytes (Homo sapiens (Human), UniProt P47869+Q8N1C3); assay: Two-electrode voltage clamp electrophysiology in Xenopus oocytes expressing GABAA receptors; format: cell-based; conditions: for Efficacy (GABA)%: % modulation of GABA EC20 = 100*(Fold increase-1), compound at 30-fold Ki α2β2γ1; for Fold increase h-GABA-A α2β2γ1 oocyte @ 30-fold Ki: GABA EC20, test compound at approx. 30-fold its Ki α2β2γ1, at least 3 oocytes
Text: Functional Expression of GABAA Receptors:
Xenopus Oocytes Preparation
Xenopus laevis oocytes at maturation stages V-VI were used for the expression of cloned mRNA encoding GABAA receptor subunits. Oocytes ready for RNA micro-injection were bought from Ecocyte, Castrop-Rauxel, Germany and stored in modified Barth's medium (composition in mM: NaCl 88, KCl 1, NaHCO3 2.4, HEPES 10, MgSO4 0.82, CaNO3 0.33, CaCl2 0.33, pH=7.5) at 20 C. until the experiment.
Xenopus Oocytes Microinjection
Oocytes were plated in 96-well plates for microinjection using the Roboinject automated instrument (MultiChannelSystems, Reutlingen, Germany). Approximately 50 nL of an aqueous solution containing the RNA transcripts for the subunits of the desired GABAA receptor subtype was injected into each oocyte. […] Oocytes were kept in modified Barth's medium (composition in mM: NaCl 88, KCl 1, NaHCO3 […], HEPES 10, MgSO4 0.82, CaNO3 0.33, CaCl2 0.33, pH=7.5) at 20° C. until the experiment.
Electrophysiological experiments were performed using the Roboocyte instrument (MultiChannelSystems, Reutlingen, Germany) on days 3 to 5 after the micro-injection of mRNA. During the experiment the oocytes were constantly superfused by a solution containing (in mM) NaCl 90, KCl 1, HEPES 5, MgCl: 1, CaCl, 1 (pH 7.4). Oocytes were impaled by two glass microelectrodes (resistance: 0.5-0.8 MS2) which were filled with a solution containing KCl 1M +K-acetate 1.5 M and voltage-clamped to −80 mV. The recordings were performed at room temperature using the Roboocyte two-electrode voltage clamp system (Multichannelsystem). After an initial equilibration period of 1.5 min GABA was added for 1.5 min at a concentration evoking approximately 20% of a maximal current response (EC20). After another rest interval of 2.5 min GABA was again added evoking a response of similar amplitude and shape. […] Current traces were recorded at a digitization rate of 10 Hz during and shortly before and after the GABA application.
Each compound and concentration was tested on at least 3 oocytes. Different oocytes were used for different compound concentrations.
For the analysis, the digitized current traces of the first and second GABA response were superimposed and, if necessary, rescaled to equal maximal amplitudes. The ratio between the two responses during the time interval of test compound application was calculated point by point. The extremum of the resulting “ratio trace” was taken as the efficacy (“Fold increase”) of the compound expressed as “% modulation of GABA EC” (100* (Fold increase-1)).

[2] = molecular target: human GABAA α5β2γ1 receptor (Homo sapiens (Human), UniProt P31644+Q8N1C3); assay: Radioligand binding assay, competition for [3H]RO7239181, γ1-containing GABAA subtypes; conditions: membranes from HEK293F cells, mean of two determinations
Description: Membrane Preparation and Binding Assay for γ1-containing GABAA Subtypes
The affinity of compounds at GABAA γ1 subunit-containing receptors was measured by competition for [^3H]RO7239181 (67.3 Ci/mmol: Roche) binding to membranes from HEK293F cells (ThermoFisher R79007) expressing human (transiently transfected) receptors of composition α5β2γ1, α2β2γ1, α1β2γ1. For better protein expression of the α2 subunit-containing receptors, the 28 amino acid long signal peptide (Metl to Ala28) of the human GABAA α2 subunit was substituted by the 31 amino acid long signal peptide (Met1 to Ser31) of human GABAA α5 subunit.
Harvested pellets from HEK293F cells expressing the different GABAA receptor subtypes were resuspended in Mannitol Buffer pH 7.2-7.4 (Mannitol 0.29 M, Tricthylamine 10 mM. Acetic acid 10 mM. EDTA 1 mM plus protease inhibitors (20 tablets Complete. Roche Diagnostics Cat. No. 05 056 489 001 per liter)), washed two times and then resuspended at 1:10 to 1:15 dilution in the same buffer. Cell disruption was performed by stirring the suspension in a Parr vessel #4637 at 435 psi for 15 minutes, and then the suspensions were centrifuged at 1000×g for 15 minutes at 4° C. (Beckman Avanti J-HC: rotor JS-4.2). The supernatant (S1) was transferred in a 21 Schott flask and the pellet (P1) was resuspended with Mannitol Buffer up to 175 ml. The resuspended pellet was transferred into a 250 ml Corning centrifugal beaker and centrifuged at 1500 ×g for 10 minutes at 4° C. (Beckman Avanti J-HC: rotor JS-4.2). The supernatant (S1) was then transferred in the 21 Schott flask and the pellet was discarded. The supernatants (S1) were centrifuged in 500ml Beckman polypropylene centrifugal beaker at 15 000×g for 30 minutes at 4° C. (Beckman Avanti J-20 XP; rotor JLA-10.500). The pellet (P2) was resuspended with Mannitol Buffer 1:1 and frozen at −80° C. The supernatant (S2) was centrifuged in 100 ml Beckman polypropylene centrifugal tubes at 48000×g for 50 minutes at 4 °C (Beckman Avanti J-20 XP: rotor JA-18). The supernatant (S3) was discarded and the pellet (P3) was resuspended with 1:1 Mannitol Buffer. The P2 and P3 protein concentration was determined with the BIORAD Standard assay method with bovine serum albumin as standard and measured on the NANO-Drop 1000. The membrane suspension was aliquots (500μl per tube) and stored at −80° C. until required.
Membrane homogenates were resuspended and polytronised (Polytron PT1200E Kinematica AG) in Potassium Phosphate 10 mM, KCl 100 mM binding buffer at pH 7.4 to a final assay concentration determined with a previous experiment.
Radioligand binding assays were carried out in a volume of 200 μL (96-well plates) which contained 100 μL of cell membranes. [^3H]RO7239181 at a concentration of 1.5 nM (α5β2γ1) or 20-30 nM (α1β2γ1, α2β2γ1) and the test compound in the range of [0.3-10000]33 10^−9 M. Nonspecific binding was defined by […] (α5β2γ1) and […] RO7239181 and typically represented less than 5% (α5β2γ1) and less than 20% (α1β2γ1, α2β2γ1) of the total binding. Assays were incubated to equilibrium for 1 hour at 4° C. and then, membranes were filtered onto unifilter (96-well white microplate with bonded GF/C filters preincubated 20-50 minutes in 0.3% Polyethylenimine) with a Filtermate 196 harvester (Packard BioScience) and washed 4 times with cold Potassium Phosphate 10 mM pH 7.4. KCl 100 mM binding buffer. After anhydrousing, filter-retained radioactivity was detected by liquid scintillation counting. Ki values were calculated using Excel-Fit (Microsoft) and are the means of two determinations.
Representative test results, obtained by the above described assay measuring binding affinity to HEK293 cells expressing human (h) receptors, are shown in the Table 1.

Structure (SMILES)	Efficacy (GABA)% [1] [%]	Fold increase h-GABA-A α2β2γ1 oocyte @ 30-fold Ki [1]	Ki [2] [nM]
C[C@@H]1N=C(c2c(F)cccc2F)c2c(sc3c2C[C@@H](C(F)F)C3)-n2c(CO)cnc21 [Example 21, [(7S,13R)-13-(difluoromethyl)-9-(2,6-difluorophenyl)-7-methyl-16-thia-2,5,8-triazatetracyclo [8.6.0.02,6.011,15]hexadeca-1(10),3,5,8,11(15)-pentaen-3-yl]methanol]	68	1.68	4.7
C[C@@H]1N=C(c2c(F)cccc2F)c2c(sc3c2C[C@@H](C(F)F)C3)-n2nc(C(=O)N3CCS(=O)(=O)CC3)nc21 [Example 19, [(7S,13R)-13-(difluoromethyl)-9-(2,6-difluorophenyl)-7-methyl-16-thia-2,3,5,8-tetrazatetracyclo [8.6.0.02,6.011,15]hexadeca-1(10),3,5,8,11(15)-pentaen-4-yl]-(1,1-dioxo-1,4-thiazinan-4-yl)methanone]	43	1.43	4.6
C[C@@H]1N=C(c2c(F)cccc2F)c2c(sc3c2C[C@@H](C(F)F)C3)-n2nc(C(=O)NCCO)nc21 [Example 18, (7S,13R)-13-(difluoromethyl)-9-(2,6-difluorophenyl)-N-(2-hydroxyethyl)-7-methyl-16-thia-2,3,5,8-tetrazatetracyclo [8.6.0.02,6.011,15]hexadeca-1(10),3,5,8,11(15)-pentaene-4-carboxamide]	65	1.65	2.5
Fc1cccc(F)c1C1=NCc2nnc(C3CC3)n2-c2sc3c(c21)C[C@@H](C(F)F)C3 [Example 7, (13R)-3-cyclopropyl-13-(difluoromethyl)-9-(2,6-difluorophenyl)-16-thia-2,4,5,8-tetrazatetracyclo [8.6.0.02,6.011,15]hexadeca-1(10),3,5,8,11(15)-pentaene]	71	1.71	2.1
Cc1nnc2n1-c1sc3c(c1C(c1c(F)cccc1Cl)=NC2)C[C@@H](C(F)F)C3 [Example 4, (13R)-9-(2-chloro-6-fluoro-phenyl)-13-(difluoromethyl)-3-methyl-16-thia-2,4,5,8-tetrazatetracyclo [8.6.0.02,6.011,15]hexadeca-1(10),3,5,8,11(15)-pentaene]	51	1.51	1.2
Cc1nnc2n1-c1sc3c(c1C(c1c(F)cccc1F)=NC2)C[C@@H](C#N)C3 [Example 2, (13R)-9-(2,6-difluorophenyl)-3-methyl-16-thia-2,4,5,8-tetrazatetracyclo [8.6.0.02,6.011,15]hexadeca-1(10),3,5,8,11(15)-pentaene-13-carbonitrile]	35	1.35	16.3
Cc1cnc2n1-c1sc3c(c1C(c1c(F)cccc1F)=N[C@H]2C)C[C@@H](C(F)F)C3 [Example 20, (7S,13R)-13-(difluoromethyl)-9-(2,6-difluorophenyl)-3,7-dimethyl-16-thia-2,5,8-triazatetracyclo [8.6.0.02,6.011,15]hexadeca-1(10),3,5,8,11(15)-pentaene]	70	1.70	3.6
Cc1nnc2n1-c1sc3c(c1C(c1c(F)cccc1F)=N[C@H]2C)C[C@@H](C)C3 [Example 15, (7S,13R)-9-(2,6-difluorophenyl)-3,7,13-trimethyl-16-thia-2,4,5,8-tetrazatetracyclo [8.6.0.02,6.011,15]hexadeca-1(10),3,5,8,11(15)-pentaene]	45	1.45	1.4
Cc1nc2n(n1)-c1sc3c(c1C(c1c(F)cccc1F)=N[C@H]2C)C[C@@H](C(F)F)C3 [Example 16, (7S,13R)-13-(difluoromethyl)-9-(2,6-difluorophenyl)-4,7-dimethyl-16-thia-2,3,5,8-tetrazatetracyclo [8.6.0.02,6.011,15]hexadeca-1(10),3,5,8,11(15)-pentaene]	32	1.32	1
Cc1nnc2n1-c1sc3c(c1C(c1c(F)cccc1F)=N[C@H]2C)C[C@@H](C(F)F)C3 [Example 5, (7S,13R)-13-(difluoromethyl)-9-(2,6-difluorophenyl)-3,7-dimethyl-16-thia-2,4,5,8-tetrazatetracyclo [8.6.0.02,6.011,15]hexadeca-1(10),3,5,8,11(15)-pentaene]	41	1.41	1.2
C[C@@H]1N=C(c2c(F)cccc2Cl)c2c(sc3c2C[C@@H](C(F)F)C3)-n2c(-c3cccnn3)nnc21 [Example 12, (7S,13R)-9-(2-chloro-6-fluoro-phenyl)-13-(difluoromethyl)-7-methyl-3-pyridazin-3-yl-16-thia-2,4,5,8-tetrazatetracyclo [8.6.0.02,6.011,15]hexadeca-1(10),3,5,8,11(15)-pentaene]	62	1.62	3.7
Fc1cccc(F)c1C1=NCc2nnc(-c3cccnn3)n2-c2sc3c(c21)C[C@@H](C(F)F)C3 [Example 10, (13R)-13-(difluoromethyl)-9-(2,6-difluorophenyl)-3-pyridazin-3-yl-16-thia-2,4,5,8-tetrazatetracyclo [8.6.0.02,6.011,15]hexadeca-1(10),3,5,8,11(15)-pentaene]	47	1.47	3
